For one assay, the target named is hCB1 (Homo sapiens, UniProt P21554). In words: Agonism of CB1 receptors expressed in CHO cells, forskolin cAMP assay (Protocol IX.2). Format: cell-based. Also on record: expressed in transfected cells; host or cells: CHO (h-CB1/CHO, G418-selected). The following applies: for activation at 10 µM: CHO. The method in brief: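 CHO cells stably expressing hCB1 stimulated with forskolin in Krebs buffer with 0.1% FAF BSA and 1 mM IBMX. Lysed cells' cAMP measured by chemiluminescence; EC50 from nonlinear regression of dose-response curves.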
On the technique in general: cAMP levels reflect the balance of adenylyl cyclase and phosphodiesterase activity.

For assay [1], the target named is T1, hCB2 (Homo sapiens, UniProt P34972). In words: Agonism of CB2 receptors expressed in CHO cells, forskolin cAMP assay (Protocol IX.2). The assay is classed as cell-based. Also noted: expressed in transfected cells; host or cells: CHO (h-CB2/CHO, G418-selected). The following applies: cAMP. An outline of the steps: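 CHO cells expressing h-CB2 were treated with compound in Krebs buffer with 0.1% FAF BSA and 1 mM IBMX, plus 10 uM forskolin, for 30 minutes at room temperature. cAMP in lysates was measured by chemiluminescence. EC50 was derived by nonlinear regression of dose–response curves, with CP 55,940 at 10 μM as reference for CB2.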

Assay [2] concerns the target T1, hCB2. In words: In vitro binding assay using hCB2-CHO membranes, [3H]-CP-55,940 displacement (Protocol IV). Also noted: expressed in transfected cells; host or cells: CHO (hCB2-CHO, generated in-house). Conditions: for inhibition at 0.3 µM: 1 h, read-out: % Displacement Protocol IV. An outline of the steps:
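Compounds were tested at a single 300 nM final concentration for displacing 0.75 nM [3H]-CP-55,940 from hCB2-CHO membranes (1 h, 30 °C, 50 mM Tris pH 7.4, 5 mM MgCl2, 1 mM EDTA, 0.1% BSA). Filter-bound radioactivity was counted, with 0.5 μM unlabelled CP-55,940 for nonspecific binding; results are % displacement.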

Assay [3] concerns the target T1, hCB2. The assay is described as follows: Antagonism of CB2 receptors expressed in CHO cells, cAMP assay against CP 55,940 (Protocol IX.1). Conditions: CHO, h-CB2/CHO cells, vs 10 nM CP 55,940. Also noted: expressed in transfected cells; host or cells: CHO (h-CB2/CHO, G418-selected). Format: cell-based. An outline of the steps:
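h-CB2/CHO cells in Krebs buffer with 0.1% FAF-BSA and 1 mM IBMX were pre-incubated 10 min with antagonist, then stimulated 30 min at room temperature with 10 nM CP 55,940 plus 10 μM forskolin. cAMP quantified by chemiluminescence; values from nonlinear regression of dose–response curves.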

Where [4] appears, read: bare number, no unit or concentration given.
Setting [5] is: hCB2 Agonism IC50, h-CB2/CHO cells.
Where [6] appears, read: hCB2-CHO membranes, [3H]-CP-55,940 displacement.
Where [7] appears, read: at 10 uM, h-CB1/CHO cells, cAMP.

Read-outs that look alike come from different tables or passages of the source.

From patent publication US7923465B2, “Cannabinoid receptor ligands, pharmaceutical compositions containing them, and process for their preparation” (priority 2005, dated 2011) come the findings set out here.

T1 sequence (P34972 whole entry): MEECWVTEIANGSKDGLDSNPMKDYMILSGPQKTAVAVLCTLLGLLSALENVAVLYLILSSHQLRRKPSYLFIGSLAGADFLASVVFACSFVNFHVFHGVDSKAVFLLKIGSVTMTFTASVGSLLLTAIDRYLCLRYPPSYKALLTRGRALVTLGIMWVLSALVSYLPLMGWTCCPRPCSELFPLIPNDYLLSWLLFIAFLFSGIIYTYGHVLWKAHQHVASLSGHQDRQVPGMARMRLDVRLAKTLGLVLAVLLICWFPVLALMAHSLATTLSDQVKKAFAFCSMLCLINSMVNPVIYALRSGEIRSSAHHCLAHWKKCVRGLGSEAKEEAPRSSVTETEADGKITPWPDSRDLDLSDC
hCB1, sequence (P21554 whole entry): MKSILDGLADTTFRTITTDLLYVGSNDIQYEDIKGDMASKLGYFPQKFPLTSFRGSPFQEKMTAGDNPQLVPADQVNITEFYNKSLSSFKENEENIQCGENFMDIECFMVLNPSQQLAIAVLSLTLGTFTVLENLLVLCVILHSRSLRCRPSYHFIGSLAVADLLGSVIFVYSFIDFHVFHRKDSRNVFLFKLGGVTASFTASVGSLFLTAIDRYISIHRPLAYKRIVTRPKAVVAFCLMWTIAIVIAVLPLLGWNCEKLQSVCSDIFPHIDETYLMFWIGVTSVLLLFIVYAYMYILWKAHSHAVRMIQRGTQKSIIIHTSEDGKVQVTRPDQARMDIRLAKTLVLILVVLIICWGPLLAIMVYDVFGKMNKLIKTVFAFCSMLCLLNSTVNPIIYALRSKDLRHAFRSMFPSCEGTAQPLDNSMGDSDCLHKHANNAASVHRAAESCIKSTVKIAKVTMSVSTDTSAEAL

One may read the IC50 as the concentration needed to halve the response being measured. As for `O=C(NNc1ccc(Cl)cc1Cl)c1nn(-c2ccc(Cl)cc2Cl)c2c1C1CCC2C1` (stereo not drawn) [Example 260, N(3)-[(2,4-Dichlorophenyl)amino]-1-(2,4-dichlorophenyl)-4,5,6,7-tetrahydro-1H-4,7-methano-indazole-3-carboxamide], the “hCB1 Agonism” value on hCB1 (setting [4]) came to 0. In addition, the midpoint of inhibition on hCB2 [1] (setting [5]), the IC50, lay at 4.1 nM. For the same compound, the inhibition at 0.3 µM at hCB2 [2] (setting [6]) is 80.2%. This compound displayed an inhibition at 10 µM on hCB2 [3] of 34.8%.

`O=C(NN1CCCCC1)c1nn(-c2ccc(Cl)cc2)c2c1C1CC3CC(C1)CC2C3` [Example 140, N(7)-Piperidino-5-(4′-chlorophenyl)-5,6-diazatetracyclo[7.3.1.1^3,11.0^4,8]tetradeca-4(8)-6-diene-7-carboxamide]: the “hCB1 Agonism” value on hCB1 (setting [7]) was determined as 48.88% at. The “% Displacement Protocol IV” value at hCB2 [2] (setting [6]) is 15.79%.

Take `O=C(NCc1ccc(Cl)cc1Cl)c1nn(-c2ccc(Cl)cc2Cl)c2c1C1CCC2C1` (stereo not drawn) [Example 251, N(3)-(2,4-Dichlorobenzyl)-1-(2,4-dichlorophenyl)-4,5,6,7-tetrahydro-1H-4,7-methano-indazole-3-carboxamide]: the activation at 10 µM on hCB1 (setting [7]) stood at 37%. Also, half-maximal inhibition on hCB2 [1] (setting [5]) (IC50) required 40.2 nM. Besides, on hCB2 [2] (setting [6]), the inhibition at 0.3 µM turned out to be 60.2%. The compound also returned an inhibition at 10 µM at hCB2 [3] of 40.8%.

Regarding `CN(NC(=O)c1nn(-c2ccc(Cl)cc2)c2c1C1CCC2C1)C1CCCCC1` (stereo not drawn) [Example 213, N(3)-[(N-Cyclohexyl-N-methyl)amino]-1-(4-chlorophenyl)-4,5,6,7-tetrahydro-1H-4,7-methano-indazole-3-carboxamide], the activation at 10 µM on hCB1 (setting [7]) worked out at 0%. In addition, at hCB2 [1] (setting [5]), 12.7 nM corresponded to half-maximal inhibition (IC50). The inhibition at 0.3 µM at hCB2 [2] (setting [6]) was determined as 71.8%. In addition, on hCB2 [3], the inhibition at 10 µM was 22.1%.

`O=C(NNc1ccccc1Br)c1nn(-c2ccc(Cl)cc2Cl)c2c1C1CCC2C1` (stereo not drawn) [Example 263, N(3)-[(2-Bromophenyl)amino]-1-(2,4-dichlorophenyl)-4,5,6,7-tetrahydro-1H-4,7-methano-indazole-3-carboxamide] gave an activation at 10 µM at hCB1 (setting [7]) of 16.2%. The compound also returned an IC50 against hCB2 [1] (setting [5]) of 2.5 nM. The inhibition at 0.3 µM at hCB2 [2] (setting [6]) is 79%. The compound further yielded an inhibition at 10 µM against hCB2 [3] of 27.1%.

`O=C(NCc1ccccc1Cl)c1nn(-c2ccc(Cl)cc2)c2c1C1CCC2C1` (stereo not drawn) [Example 221, N(3)-(2-Chlorobenzyl)-1-(4-chlorophenyl)-4,5,6,7-tetrahydro-1H-4,7-methano-indazole-3-carboxamide] yielded an activation at 10 µM at hCB1 (setting [7]) of 0%. Besides, on hCB2 [1] (h-CB2/CHO cells, read-out: hCB2 Agonism IC50), the IC50 worked out at 36.4 nM. Besides, the inhibition at 0.3 µM on hCB2 [2] was 75.7%. Moreover, the inhibition at 10 µM against hCB2 [3] came out at 30.1%.

Consider `O=C(NC1CCCCC1)c1nn(-c2ccc(Br)cc2)c2c1C1CCC2C1` (stereo not drawn) [Example 275, N(3)-Cyclohexyl-1-(4-bromophenyl)-4,5,6,7-tetrahydro-1H-4,7-methano-indazole-3-carboxamide], for which the activation at 10 µM at hCB1 (setting [7]) came to 16.4%. On hCB2 [1] (setting [5]), this compound gave an IC50 of 4.49 nM. Besides, the inhibition at 0.3 µM on hCB2 [2] (setting [6]) worked out at 72.3%. At hCB2 [3], this compound registered an inhibition at 10 µM of 19.1%.

With `O=C(NNc1ccccc1Cl)c1nn(-c2ccc(Cl)cc2Cl)c2c1C1CCC2C1` (stereo not drawn) [Example 257, N(3)-[(2-Chlorophenyl)amino]-1-(2,4-dichlorophenyl)-4,5,6,7-tetrahydro-1H-4,7-methano-indazole-3-carboxamide], the “hCB1 Agonism” value on hCB1 (setting [4]) is 0. This compound displayed a concentration for half-maximal inhibition (IC50) on hCB2 [1] (setting [5]) of 3.7 nM. Further, the inhibition at 0.3 µM at hCB2 [2] (setting [6]) was 83.9%. For the same compound, the inhibition at 10 µM against hCB2 [3] worked out at 37.5%.
